# Details: buffer; pH 7.4; 200.0 µM
row,SMILES,solubility kinetic [µg/mL]
1,CCOc1ccc(CCNC(=O)c2ccc(=O)[nH]c2)cc1OCC,> 49.6
2,NCCc1c(Cc2ccccc2)[nH]c2ccccc12,34.5
3,CCN1CCN(CCC(=O)Nc2cccc(C)c2)CC1.Cl,46.4
4,COc1ccc(CC(=O)Nc2c(C(N)=O)oc3ccccc23)cc1,1.6
5,COC(=O)c1sccc1NC(=O)Nc1ccccc1Cl,25.8
6,COc1ccc(C2C3(C#N)C(N)=NC(OC)(OC)C23C#N)cc1 (configuration not stated),> 46.8
7,C=C(C)CNC(=O)c1ccc2nc(Cc3ccc(OC)cc3)oc2c1,40.5
8,CC(=O)N1CCCc2cc(S(=O)(=O)N3CCCC3)ccc21,> 46.3
9,CCC(CC)C(=O)Nc1ccc(-c2cn3cccnc3n2)cc1,43.4
10,O=C(CN1CCN(c2ccccc2F)CC1)c1ccc(O)cc1O,10.7
11,CCOc1cccc(C(=O)NC2=NCCS2)c1,26.1
12,CCN(C#N)c1nc(NC(C)C)nc(NC(C)(C)C)n1,37
13,CC(=O)c1ccc(NC(=O)C[n+]2ccccc2)cc1.[Cl-],> 43.6
14,N#C/C(=C/c1cccs1)c1ccccn1,7
15,CCOc1ccc(-n2c(C)c(C(=O)OC)c3cc(O)ccc32)cc1,< 0.7
16,CCOc1ccc(C(CC(=O)O)NC(=O)Cc2ccc(Cl)cc2)cc1 (configuration not stated),> 54.3
17,C/C=C(\C)CN1CCCC(CO)(Cc2ccccc2)C1 (configuration not stated),34.3
18,Cc1ccc(NS(=O)(=O)c2ccc3c(c2)oc(=O)n3C)cc1C,< 0.4
19,O=C(CN1CCN(c2ccccn2)CC1)Nc1ccc(F)cc1F,> 49.9
20,COC(=O)CC1C(=O)NCCN1C(=O)c1cc([N+](=O)[O-])ccc1Cl (configuration not stated),52.9
21,O=C(c1ccc([N+](=O)[O-])cc1[N+](=O)[O-])N1CCCC1,> 39.8
22,CC1CCCC(C)N1C(=O)COC(=O)c1ccc(Br)o1 (configuration not stated),> 51.6
23,O=C(c1cc2c(ccc3ccccc32)o1)N1CCCCC1,2.6
24,CC(=O)Oc1ccc2c(=O)c(-c3nc4ccccc4s3)coc2c1,1

row,SMILES,solubility kinetic [µg/mL]
1,O=C(Cn1c(=O)oc2ccccc21)Nc1ccc(Br)cc1,2.1
2,Cc1cccc(-c2noc(-c3ccc4c(c3)OCO4)n2)c1,< 0.3
3,CCOC(=O)c1ccc(NC(=O)Nc2ccon2)cc1,6
4,Cc1cc(NC(=O)OC2CCCCC2)ccc1[N+](=O)[O-],0.4
5,O=C(Nc1ccccc1F)c1cc(Cl)sc1Cl,5.2
6,COc1ccc(NC(=O)C2=C(C)NC(=O)NC2c2ccccc2[N+](=O)[O-])cc1 (configuration not stated),57.1
7,Cc1cc(C)cc(OCCCn2ccnc2)c1,26.4
8,Brc1ccccc1OCCCCN1CCCCC1,39.1
9,CC(=O)Nc1ccc(N/C=C/C(=O)c2ccc(Cl)cc2)cc1,2.4
10,O=c1c2ccccc2[nH]c(=S)n1Cc1ccccc1,< 0.3
11,COc1ccc(CC(=O)OCC(=O)NCc2ccc3c(c2)OCO3)cc1OC,> 58.1
12,COc1ccc(N2C(=O)C(F)(F)C2c2ccc(C)cc2)cc1OC (configuration not stated),< 0.7
13,Cc1ccc(CC(=O)N2CCN(C(=O)C3CCCO3)CC2)cc1 (configuration not stated),43.2
14,Cc1ccc(NC(=O)c2ccc(S(=O)(=O)N3CCOCC3)cc2)cc1,3.6
15,CCNc1ccc(S(=O)(=O)N2CCCCC2)cn1,> 40.4
16,COc1cc(C(=O)NCCNC(=O)c2ccc(C)nc2)cc(OC)c1OC,52.6
17,NC(=O)c1cccnc1Oc1ccccc1,28.8
18,CCc1ccc(N2C(=O)CC(N3CCN(c4ccccn4)CC3)C2=O)cc1 (configuration not stated),> 54.7
19,Cn1c2c(c(=O)n(C)c1=O)C(c1cccc(F)c1)C(C#N)=C(N)O2 (configuration not stated),45.5
20,CCOC(=O)Cn1cc(Cl)c(=O)c(Cl)c1,35.8
21,CC1CN(C(=O)c2ccc(NS(=O)(=O)c3ccc(F)cc3)cc2)CC(C)O1 (configuration not stated),> 58.9
22,COCC(=O)Nc1cc(Cl)ccc1C,> 32
23,COc1ccc(CCC(=O)NCCc2nc3ccccc3[nH]2)cc1,8.8
